According to article PMC10861299, “A Systematic Survey of Reversibly Covalent Dipeptidyl Inhibitors of the SARS-CoV-2 Main Protease” (Journal of Medicinal Chemistry, 2023):
Where two headings read alike, the source gives them in different places.

Key:
[1] = biological target: M^Pro-eGFP fusion protein in 293T cells (Severe acute respiratory syndrome coronavirus 2, UniProt P0DTD1); assay: cell-based; parameters: species or system SARS-CoV-2
[2] = biological target: SARS-CoV-2 main protease (M^Pro) (Severe acute respiratory syndrome coronavirus 2, UniProt P0DTD1); assay: In vitro M^Pro enzymatic inhibition with fluorogenic substrate Sub3; format: biochemical
[3] = system: SARS-CoV-2 (USA-WA1/2020); assay: Plaque reduction neutralization test in Vero E6 cells; format: cell-based; conditions: SARS-CoV-2 USA-WA1/2020, Vero E6 cells, 3 days, read-out: Antiviral EC50
[4] = In vitro metabolic stability in human liver microsomes; conditions: pH 7.4
Cytotoxicity, MTT assay = format: cell-based; conditions: human, HEK293T cells, 293T cells
Procedure: Because of their high antiviral potency, MPI60 and MPI61 were advanced to characterizations of cytotoxicity and in vitro metabolic stability. For the cytotoxicity characterization, we used 293T cells and the MTT assay.[42] […] These CC50 values are similar to that of nirmatrelvir and lead to high calculated selectivity indices (CC50/antiviral EC50) for both compounds. The in vitro metabolic stability analysis for MPI60 and MPI61 was conducted using human liver microsomes.
HEK293T cells were seeded in 96-well plates and incubated at 37 °C and 5% CO2 for 24 h. The cells were then treated with different concentrations (200, 100, 50, 25, 12.5, 6.25, 3.125, 1.5625, 0.78125, and 0 μM) of the tested compound in triplicate for 48 h. Cell viability was assessed by the MTT assay to determine CC50. For the MTT assay, 20 μL MTT (5 mg/mL) was added to each well and incubated with cells for 4 h. After that, the supernatant was removed, and 200 μL DMSO was added per well. The absorbance was recorded at 490 nm. The CC50 value was determined by plotting the normalized cell viability (%) against the compound concentration.
Figure S5. Cytotoxicity curves of MPI60 and MPI61 in 293T cells tested by the MTT assay.
(1 picture or pasted object on this page, not shown here)

[5] = 20 nM M^Pro, 10 μM Sub3, 30 min preincubation, read-out: Enzymatic IC50
[6] = read-out: IC50 (M^Pro enzymatic inhibition)
[7] = Severe acute respiratory syndrome coronavirus 2, Vero C1008, 72 h

SMILES | EC50 ([1]; read-out: Cellular EC50) [nM] | IC50 [2, 5] [nM] | EC50 [3, 7] [nM] | other results
CC1(C)[C@@H]2[C@@H](C(=O)N[C@H](C=O)C[C@@H]3CCNC3=O)N(C(=O)COc3ccc(Cl)cc3Cl)C[C@@H]21 [MI-14, (1R,2S,5S)-3-(2-(2,4-Dichlorophenoxy)acetyl)-6,6-dimethyl-N-((S)-1-oxo-3-((S)-2-oxopyrrolidin-3-yl)propan-2-yl)-3-azabicyclo[3.1.0]hexane-2-carboxamide, reference compound] | 280 | 28 | – | IC50 [2, 6]: ≤ 50 nM
O=C[C@H](C[C@@H]1CCNC1=O)NC(=O)[C@@H]1[C@H]2CCC[C@H]2CN1C(=O)COc1ccc(Cl)c(Cl)c1 [MI-31, (1S,3aR,6aS)-2-(2-(3,4-Dichlorophenoxy)acetyl)-N-((S)-1-oxo-3-((S)-2-oxopyrrolidin-3-yl)propan-2-yl)octahydrocyclopenta[c]pyrrole-1-carboxamide, reference compound] | 2700 | 42 | – | IC50 [2, 6]: ≤ 50 nM
CC(C)(C)C[C@H](NC(=O)c1cc2ccccc2[nH]1)C(=O)N[C@H](C=O)C[C@@H]1CCNC1=O [MPI48, N-((S)-4,4-Dimethyl-1-oxo-1-(((S)-1-oxo-3-((S)-2-oxopyrrolidin-3-yl)propan-2-yl)amino)pentan-2-yl)-1H-indole-2-carboxamide] | 1600 | 29 | – | –
COc1cccc2[nH]c(C(=O)N[C@@H](CC(C)(C)C)C(=O)N[C@H](C=O)C[C@@H]3CCNC3=O)cc12 [MPI49, N-((S)-4,4-Dimethyl-1-oxo-1-(((S)-1-oxo-3-((S)-2-oxopyrrolidin-3-yl)propan-2-yl)amino)pentan-2-yl)-4-methoxy-1H-indole-2-carboxamide] | 910 | 74 | 1300 | –
CC(C)(C)C[C@H](NC(=O)OCc1ccccc1)C(=O)N[C@H](C=O)C[C@@H]1CCNC1=O [MPI50, Benzyl ((S)-4,4-Dimethyl-1-oxo-1-(((S)-1-oxo-3-((S)-2-oxopyrrolidin-3-yl)propan-2-yl)amino)pentan-2-yl)carbamate] | 730 | 53 | < 1000 | EC50 [3]: 750 nM
O=C[C@H](C[C@@H]1CCNC1=O)NC(=O)[C@H](CC1CCCCC1)NC(=O)OCc1ccccc1 [MPI51, Benzyl ((S)-3-Cyclohexyl-1-oxo-1-(((S)-1-oxo-3-((S)-2-oxopyrrolidin-3-yl)propan-2-yl)amino)propan-2-yl)carbamate] | 770 | 56 | 6700 | –
O=C[C@H](C[C@@H]1CCNC1=O)NC(=O)[C@H](CC1CCCCC1)NC(=O)OCc1cccc(Cl)c1 [MPI52, 3-Chlorobenzyl ((S)-3-Cyclohexyl-1-oxo-1-(((S)-1-oxo-3-((S)-2-oxopyrrolidin-3-yl)propan-2-yl)amino)propan-2-yl)carbamate] | 590 | 110 | 2600 | –
CC(=O)Oc1cccc(COC(=O)N[C@@H](CC2CCCCC2)C(=O)N[C@H](C=O)C[C@@H]2CCNC2=O)c1 [MPI53, 3-(((((S)-3-Cyclohexyl-1-oxo-1-(((S)-1-oxo-3-((S)-2-oxopyrrolidin-3-yl)propan-2-yl)amino)propan-2-yl)carbamoyl)oxy)methyl)phenyl Acetate] | 3500 | 98 | – | –
CC(C)(C)O[C@@H]1C[C@@H](C(=O)N[C@H](C=O)C[C@@H]2CCNC2=O)N(C(=O)OCc2ccccc2)C1 [MPI55] | – | 560 | – | –
O=C[C@H](C[C@@H]1CCNC1=O)NC(=O)[C@@H]1C[C@@H](C2CCCCC2)CN1C(=O)OCc1ccccc1 [MPI56, (2S,4S)-Benzyl 4-Cyclohexyl-2-(((S)-1-oxo-3-((S)-2-oxopyrrolidin-3-yl)propan-2-yl)carbamoyl)pyrrolidine-1-carboxylate] | – | 510 | – | –
CC1(C)[C@@H]2[C@@H](C(=O)NC(C=O)CC3CCNC3=O)N(C(=O)OCc3ccccc3)C[C@@H]21 (stereo partly drawn) [MPI57, Benzyl (1R,2S,5S)-6,6-Dimethyl-2-((1-oxo-3-(2-oxopyrrolidin-3-yl)propan-2-yl)carbamoyl)-3-azabicyclo[3.1.0]hexane-3-carboxylate] | – | – | 1500 | –
O=C[C@H](C[C@@H]1CCNC1=O)NC(=O)[C@@H]1CC2(CC2)CN1C(=O)OCc1ccccc1 [MPI58, Benzyl (S)-6-(((S)-1-oxo-3-((S)-2-oxopyrrolidin-3-yl)propan-2yl)carbamoyl)-5-azaspiro[2,4]heptane-5-carboxylate] | 660 | 25 | 3600 | –
O=C[C@H](C[C@@H]1CCNC1=O)NC(=O)[C@@H]1CC2(CCC2)CN1C(=O)OCc1ccccc1 [MPI59, Benzyl (S)-7-(((S)-1-Oxo-3-((S)-2-oxopyrrolidin-3-yl)propan-2-yl)carbamoyl)-6-azaspiro[3.4]octane-6-carboxylate] | 430 | 30 | < 1000 | EC50 [3]: 560 nM
O=C[C@H](C[C@@H]1CCNC1=O)NC(=O)C1CC2(CCCC2)CN1C(=O)OCc1ccccc1 (stereo partly drawn) [MPI60, Benzyl 3-(((S)-1-Oxo-3-((S)-2-oxopyrrolidin-3-yl)propan-2-yl)carbamoyl)-2-azaspiro[4.4]nonane-2-carboxylate] | 88 | 22 | – | EC50 ([1]; read-out: cellular EC50): < 100 nM; CLint scaled at 5 μM [4]: 16 mL/min/kg; half-life at 5 μM [4]: 1.82 h; CC50 at 48 h (Cytotoxicity, MTT assay): 95000 nM
CC1(C)[C@@H]2[C@@H](C(=O)N[C@H](C=O)C[C@@H]3CCNC3=O)N(C(=O)CNc3ccc(Cl)cc3)C[C@@H]21 [MPI62, (1R,2S,5S)-3-((4-Chlorophenyl)glycyl)-6,6-dimethyl-N-((S)-1-oxo-3-((S)-2-oxopyrrolidin-3-yl)propan-2-yl)-3-azabicyclo[3.1.0]hexane-2-carboxamide] | – | 990 | – | –
O=C[C@H](C[C@@H]1CCNC1=O)NC(=O)[C@@H]1CC2(CC2)CN1C(=O)COc1ccc(Cl)cc1Cl [MPI63, (S)-5-(2-(2,4-Dichlorophenoxy)acetyl)-N-((S)-1-oxo-3-((S)-2-oxopyrrolidin-3-yl)propan-2-yl)-5-azaspiro[2.4]heptane-6-carboxamide] | 2900 | 39 | – | –
CC1(C)[C@@H]2[C@@H](C(=O)N[C@H](C=O)C[C@@H]3CCNC3=O)N(C(=O)COC3CCCCC3)C[C@@H]21 [MPI64, (1R,2S,5S)-3-(2-(Cyclohexyloxy)acetyl)-6,6-dimethyl-N-((S)-1-oxo-3-((S)-2-oxopyrrolidin-3-yl)propan-2-yl)-3-azabicyclo[3.1.0]hexane-2-carboxamide] | 3600 | 25 | – | –
CC1(C)[C@@H]2[C@@H](C(=O)N[C@H](C=O)C[C@@H]3CCNC3=O)N(C(=O)CCC3CCCCC3)C[C@@H]21 [MPI65, (1R,2S,5S)-3-(3-Cyclohexylpropanoyl)-6,6-dimethyl-N-((S)-1-oxo-3-((S)-2-oxopyrrolidin-3-yl)propan-2-yl)-3-azabicyclo[3.1.0]hexane-2-carboxamide] | 560 | 41 | < 1000 | EC50 [3]: 960 nM
N#C[C@H](C[C@@H]1CCNC1=O)NC(=O)C1CC2(CCCC2)CN1C(=O)OCc1ccccc1 (stereo partly drawn) [MPI66-1, Benzyl 3-(((S)-1-Cyano-2-((S)-2-oxopyrrolidin-3-yl)ethyl)carbamoyl)-2-azaspiro[4.4]nonane-2-carboxylate] | – | 2200 | – | –
N#C[C@H](C[C@@H]1CCNC1=O)NC(=O)C1CC2(CCCC2)CN1C(=O)OCc1cccc(Cl)c1 (stereo partly drawn) [MPI66-2, 3-Chlorobenzyl 3-(((S)-1-Cyano-2-((S)-2-oxopyrrolidin-3-yl)ethyl)carbamoyl)-2-azaspiro[4.4]nonane-2-carboxylate] | – | 3600 | – | –
COc1cccc2[nH]c(C(=O)N3CC4(CCCC4)CC3C(=O)N[C@H](C=O)C[C@@H]3CCNC3=O)cc12 (stereo partly drawn) [MPI66-3, 2-(4-Methoxy-1H-indole-2-carbonyl)-N-((S)-1-oxo-3-((S)-2-oxopyrrolidin-3-yl)propan-2-yl)-2-azaspiro[4.4]nonane-3-carboxamide] | – | 1500 | – | –
COc1cccc2[nH]c(C(=O)N3CC4(CCCC4)CC3C(=O)N[C@H](C#N)C[C@@H]3CCCNC3=O)cc12 (stereo partly drawn) [MPI66-4, N-((S)-1-Cyano-2-((S)-2-oxopiperidin-3-yl)ethyl)-2-(4-methoxy-1H-indole-2-carbonyl)-2-azaspiro[4.4]nonane-3-carboxamide] | – | 6000 | – | –
N#C[C@H](C[C@@H]1CCNC1=O)NC(=O)C1CC2(CCCCC2)CN1C(=O)OCc1ccccc1 (stereo partly drawn) [MPI67, Benzyl 3-(((S)-1-Cyano-2-((S)-2-oxopyrrolidin-3-yl)ethyl)carbamoyl)-2-azaspiro[4.5]decane-2-carboxylate] | – | 1400 | – | –
CC(C)(C)OC(=O)N1CC2(CCC2)C[C@H]1C(=O)N[C@H](C=O)C[C@@H]1CCNC1=O [YR-B-101, tert-Butyl-(S)-7-(((S)-1-oxo-3-((S)-2-oxopyrrolidin-3-yl)propan-2-yl)carbamoyl)-6-azaspiro[3.4]octane-6-carboxylate] | – | > 5000 | – | –
